Here are results for five compounds from US20250179047A1, “5-[7-(3,4-DIHYDRO-1H-ISOQUINOLINE-2-CARBONYL)-1,2,3,4 TETRAHYDROISOQUINOLIN-6-YL]-1H-PYRROLE-3-CARBOXAMIDE DERIVATIVES, PHARMACEUTICAL COMPOSITIONS CONTAINING THEM AND THEIR USES AS PRO-APOPTOTIC AGENTS” (LES LABORATOIRES SERVIER, priority 2022, published 2025).

Each structure is given as a SMILES string.

In assay [1] the test system is KMS12PE Bcl2 G101V. Kind of assay: In vitro cytotoxicity CellTiterGlo 72 h, KMS12PE Bcl2 G101V. The class given is cell-based. To be noted: Homo sapiens, KMS-12-PE, read-out: C50 nM, KMS12PE Bcl2 G101V. On the procedure:
(§1) KMS-12-PE (ACC 606) were purchased from the Leibniz-Institute DSMZ (Braunschweig, Germany) and were grown at 37° C. in a humidified atmosphere with 5% CO2 in media recommended by the suppliers. Lentiviral particles containing Bcl-2 wild type (also named “Bcl2 WT”), Bcl-2 mutated on G101V (also named “Bcl2 G101V”), Bcl-2 mutated on D103Y (also named “Bcl2 D103Y”), Bcl-2 mutated on D103V (also named “Bcl2 D103V”), Bcl-2 mutated on D103E (also named “Bcl2 D103E”), Bcl-2 mutated on F104I (also named “Bcl2 F104I”), Bcl-2 mutated on F104L (also named “Bcl2 F104L”), Bcl-2 mutated on D111A (also named “Bcl2 D111A”), Bcl-2 mutated on A113G (also named “Bcl2 A113G”), Bcl-2 mutated on R129L (also named “Bcl2 R129L”), Bcl-2 mutated on V156D (also named “Bcl2 V156D”) were cloned into pcLV-CMV-DEST-IRES-TagRFP. Lentiviral particles (1×10^6) were mixed with Polybrene at 8 μg/ml and transduced by spinoculation for 1 h at 32° C. and incubated overnight. After 8 days, TagRFP positive-cells were sorted by FACS. BCL2 expression was monitored by immunoblotting using anti-Flag and anti-BCL2 antibodies. Cells were seeded into 96-wells plates and treated with 1:3.16 serial dilution of compounds (9 different concentrations). Cell viability was assessed using CellTiterGlo reagent following treatment for 72 h. Results were normalized to the viability of cells without compounds (control wells). The C50 values were calculated using nonlinear regression algorithms in XCell software.
(ATP-based viability assays read luminescence as a measure of living cells.)

In assay [2] the target is BCL2 F104I (Homo sapiens, UniProt P10415, F104I). Kind of assay: TR-FRET competitive binding assay, BCL2 F104I. As to conditions: Ki determined from IC50, read-out: TR_FRET EKI_Bcl2 F104I. The method, boiled down:
(§2)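 Terbium-labelled N-terminal Halo-fusion BCL2 or BCLXL (E. coli), 0.5 nM, competed against fluorescein-labelled PUMA peptide (2 or 20 nM) for 2 h at 23° C in 50 mM Hepes pH 7.5, 150 mM NaCl, 5% DMSO. TR-FRET 520/495 nm ratio gave IC50 by four-parameter fit; Ki derived from IC50.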

Assay [3] has as its target BCL2 D111A (Homo sapiens, UniProt P10415, D111A). Kind of assay: TR-FRET competitive binding assay, BCL2 D111A. To be noted: Ki determined from IC50, read-out: TR_FRET EKI_Bcl2 D111A. In outline:
as §2
A general note: Time-resolved FRET reads energy transfer from a long-lived donor to a nearby acceptor.

The target in assay [4] is BCLXL WT (Homo sapiens (Human), UniProt Q07817). Put plainly: TR-FRET competitive binding assay, BCLXL WT. To be noted: for Ki: BCLXL WT, Ki determined from IC50, read-out: TR_FRET EKI BclxL; for TR_FRET EKI BCLxL/WT selectivty ratio: ratio Ki BCLxL / Ki BCL2 WT. In outline:
as §2

Assay [5] addresses BCL2 WT (Homo sapiens (Human), UniProt P10415). Put plainly: TR-FRET competitive binding assay, BCL2 WT. To be noted: Ki determined from IC50, read-out: TR_FRET EKI_Bcl2 WT. The method, boiled down:
as §2

Assay [6] concerns KMS12PE Bcl2 D103E. Put plainly: In vitro cytotoxicity CellTiterGlo 72 h, KMS12PE Bcl2 D103E. Type of assay: cell-based. To be noted: Homo sapiens, KMS-12-PE, read-out: C50 nM, KMS12PE Bcl2 D103E. On the procedure:
as §1

BCLXL WT, sequence (Q07817 other isoform, or with tags, fused parts or gaps): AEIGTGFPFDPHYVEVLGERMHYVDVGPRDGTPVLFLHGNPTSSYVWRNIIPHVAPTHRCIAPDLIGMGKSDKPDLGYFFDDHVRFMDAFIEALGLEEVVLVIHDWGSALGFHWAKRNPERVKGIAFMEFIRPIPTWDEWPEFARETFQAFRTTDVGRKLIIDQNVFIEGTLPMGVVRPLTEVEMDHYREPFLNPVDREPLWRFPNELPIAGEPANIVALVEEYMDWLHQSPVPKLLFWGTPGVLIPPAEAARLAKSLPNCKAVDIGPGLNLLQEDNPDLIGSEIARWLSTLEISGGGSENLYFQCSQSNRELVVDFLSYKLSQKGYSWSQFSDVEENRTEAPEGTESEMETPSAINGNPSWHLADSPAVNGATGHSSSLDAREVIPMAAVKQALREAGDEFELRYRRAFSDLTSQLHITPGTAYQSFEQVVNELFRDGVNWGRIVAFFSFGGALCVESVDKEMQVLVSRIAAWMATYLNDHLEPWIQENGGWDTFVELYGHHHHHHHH
BCL2 WT, sequence (P10415 other isoform, or with tags, fused parts or gaps): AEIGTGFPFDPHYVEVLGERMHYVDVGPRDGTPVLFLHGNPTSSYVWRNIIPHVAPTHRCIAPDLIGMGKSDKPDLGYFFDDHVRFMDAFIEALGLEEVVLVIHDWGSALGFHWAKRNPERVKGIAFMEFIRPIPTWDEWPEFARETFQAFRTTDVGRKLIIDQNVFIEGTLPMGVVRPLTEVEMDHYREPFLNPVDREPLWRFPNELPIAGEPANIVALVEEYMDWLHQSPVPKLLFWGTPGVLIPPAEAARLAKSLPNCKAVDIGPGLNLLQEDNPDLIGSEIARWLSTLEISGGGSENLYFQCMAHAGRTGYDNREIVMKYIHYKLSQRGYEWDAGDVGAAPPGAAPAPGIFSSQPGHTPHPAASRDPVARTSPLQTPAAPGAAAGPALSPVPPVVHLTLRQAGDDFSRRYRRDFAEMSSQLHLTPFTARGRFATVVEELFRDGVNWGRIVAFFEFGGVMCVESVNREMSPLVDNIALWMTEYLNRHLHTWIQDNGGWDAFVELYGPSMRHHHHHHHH

As to `Cc1c(N(C(=O)c2cc(-c3cc4c(cc3C(=O)N3Cc5ccccc5C[C@H]3C)CN(C(=O)Cc3ccc(CCN5CCC(F)(F)CC5)cc3)CC4)n(C)c2C)c2ccc(O)cc2)cc(C#N)n1C` [Example 51, N-(5-cyano-1,2-dimethylpyrrol-3-yl)-5-[2-(2-{4-[2-(4,4-difluoropiperidin-1-yl)ethyl]phenyl}acetyl)-7-{[(3R)-3-methyl-3,4-dihydro-1H-isoquinolin-2-yl]carbonyl}-3,4-dihydro-1H-isoquinolin-6-yl]-N-(4-hydroxyphenyl)-1,2-dimethylpyrrole-3-carboxamide], the IC50 in assay [1] came out at 20.2 nM; in assay [6], 2.81 nM. Besides, the Ki in assay [2] came out at 4.91 nM; in assay [3] it was 0.89 nM; in assay [4], 4.4 nM; in assay [5], 0.22 nM. Moreover, in assay [4], the “TR_FRET EKI BCLxL/WT selectivty ratio” value is reported as 20.0.

Take `Cc1c(N(C(=O)c2cc(-c3cc4c(cc3C(=O)N3Cc5ccccc5C[C@H]3C)CN(C(=O)Cc3ccc(OCCN5CCC(F)CC5)cc3)CC4)n(C)c2C)c2ccc(O)cc2)cc(C#N)n1C` [Example 53, N-(5-cyano-1,2-dimethyl-1H-pyrrol-3-yl)-5-[2-(2-{4-[2-(4-fluoropiperidin-1-yl)ethoxy]phenyl}acetyl)-7-[(3R)-3-methyl-1,2,3,4-tetrahydroisoquinoline-2-carbonyl]-1,2,3,4-tetrahydroisoquinolin-6-yl]-N-(4-hydroxyphenyl)-1,2-dimethyl-1H-pyrrole-3-carboxamide]: the IC50 came to 16.3 nM in assay [1] and 2.76 nM in assay [6]. The Ki amounted to 0.35 nM in assay [2], 0.18 nM in assay [3], 1.2 nM in assay [4] and 0.07 nM in assay [5]. Also, in assay [4], the “TR_FRET EKI BCLxL/WT selectivty ratio” value came to 18.5.

Turning to `Cc1c(N(C(=O)c2cc(-c3cc4c(cc3C(=O)N3Cc5ccccc5C[C@H]3CN3CCCCC3)CN(C(=O)Cc3ccc(OCCC5CCOCC5)cc3)CC4)n(C)c2C)c2ccc(O)cc2)cc(C#N)n1C` [Example 66, N-(5-cyano-1,2-dimethylpyrrol-3-yl)-N-(4-hydroxyphenyl)-1,2-dimethyl-5-[2-(2-{4-[2-(oxan-4-yl)ethoxy]phenyl}acetyl)-7-{[(3S)-3-(piperidin-1-ylmethyl)-3,4-dihydro-1H-isoquinolin-2-yl]carbonyl}-3,4-dihydro-1H-isoquinolin-6-yl]pyrrole-3-carboxamide], the IC50 is 10.1 nM in assay [1] and 1.89 nM in assay [6]. Further, the Ki in assay [2] is 0.47 nM; in assay [3] it was 0.23 nM; in assay [4], 4 nM; in assay [5], 0.08 nM. For the same compound, in assay [4], the “TR_FRET EKI BCLxL/WT selectivty ratio” value is given as 47.6.

`Cc1c(C(=O)N(c2ccc(O)cc2)c2cc(C#N)n(C(F)F)c2C)cc(-c2cc3c(cc2C(=O)N2Cc4ccccc4C[C@H]2CN2CCCCC2)CN(C(=O)Cc2ccc(OCCN4CCOCC4)cc2)CC3)n1C` [Example 77]: the results for the IC50 in assay [1] and in assay [6] were 28.2 nM and 4.69 nM, respectively. Moreover, the Ki in assay [2] was 0.47 nM; in assay [3], 0.2 nM; in assay [4], 8 nM; in assay [5], 0.06 nM. For the same compound, the “TR_FRET EKI BCLxL/WT selectivty ratio” value in assay [4] was determined as 135.6.

As to `Cc1c(C(=O)N(c2ccc(O)cc2)c2cc(C#N)n(C(F)F)c2C)cc(-c2cc3c(cc2C(=O)N2Cc4ccccc4C[C@H]2CN2CCCCC2)CN(C(=O)Cc2ccc(OCCN4CCOCC4)cc2F)CC3)n1C` [Example 78, N-[5-cyano-1-(difluoromethyl)-2-methylpyrrol-3-yl]-5-[2-(2-{2-fluoro-4-[2-(morpholin-4-yl)ethoxy]phenyl}acetyl)-7-{[(3S)-3-(piperidin-1-ylmethyl)-3,4-dihydro-1H-isoquinolin-2-yl]carbonyl}-3,4-dihydro-1H-isoquinolin-6-yl]-N-(4-hydroxyphenyl)-1,2-dimethylpyrrole-3-carboxamide], the IC50 came out at 8.35 nM in assay [1] and 1.18 nM in assay [6]. Further, the Ki in assay [2] was 0.43 nM; in assay [3], 0.26 nM; in assay [4], 7.1 nM; in assay [5], 0.05 nM. The “TR_FRET EKI BCLxL/WT selectivty ratio” value in assay [4] worked out at 134.0.
